Measured values: US7488491B2, “Use of glycosylceramides as adjuvants for vaccines against infections and cancer” (New York University, priority 2001, dated 2009)
Entries after “also recorded” stand apart in the source; their conditions may differ.

How the values were obtained:
Vα14 NKT cells = conditions: mice; cited from earlier work
[1] = independently of dosage; cited from earlier work
[2] = independently of dosage; cited from earlier work; remark: listed apart in the source
P. yoelii sporozoites [3] = assay: Protection against blood infection (parasitemia in thin blood smears) after challenge with 50 viable sporozoites
From the text: To further assess the adjuvant activity of α-GalCer co-administered with vaccines, parasitemia (i.e., the presence of parasites in the blood) was monitored daily by microscopic examination of thin blood smears. Briefly, BALB/c mice were immunized either intravenously with 1×10^4 γ-spz or subcutaneously with 1×10^7 p.f.u. of AdPyCS, doses which otherwise fail to confer protection against malaria, with or without α-GalCer treatment. Two weeks later, all mice were challenged with 50 viable P. yoelii sporozoites, and determined the occurrence of blood infection by monitoring parasitemia.
To determine the adjuvant effect of α-GalCer on the duration of protection against malaria, parasitemia (i.e., the presence of the parasites in the blood) was monitored daily via microscopic inspection of thin blood smears in two separate experiments. In experiment 1, two groups of mice, one treated with α-GalCer and the other untreated, were immunized with 1×10^4 γ-spz, a dose that fails to confer protection against malaria 2 weeks after immunization. Two weeks later, all mice were challenged with 50 viable P. yoelii sporozoites, and the occurrence of blood infection was determined by monitoring parasitemia. In experiment 2, two groups of mice, one treated with α-GalCer and the other untreated, were immunized with 1×10^5 γ-spz, a dose that induces complete protection 2 weeks after immunization but not 4 weeks after. Four weeks later, these immunized mice, as well as naive controls were challenged with 50 live sporozoites, and the course of infection was determined as described above.

[4] = system: p18-specific CD8+ T cells (p18 protein of HIV); assay: ELISPOT assay of HIV p18-specific CD8+ T cells from immunized mice; conditions: mice immunized with CD8+ T cell epitope […] of p18 of HIV
Procedure: An ELISPOT assay was performed to determine the number of CS-specific CD4+ and CD8+ T cells, producing IFN-γ or IL-4 (Miyahira et al., J. Immunol. Methods, 181: 45-54, 1995). Briefly, 96 well nitrocellulose plates (Millipore, Bedford, Mass.) were coated with anti-mouse IFN-γ monoclonal antibodies (mAb), or anti-mouse IL-4 mAb. After overnight incubation at room temperature, the wells were washed repeatedly and blocked with culture medium for 1 hour at 37° C. […] After irradiating the peptide-pulsed target cells, the cells were added to the ELISPOT wells. Untreated target cells were used as negative controls. Serially diluted lymphocytes isolated from the spleen or lymph nodes of immunized mice were co-cultured with 1.5×10^5 target cells in the ELISPOT wells. After incubating the plates 24 h for IFN-γ detection or 48 h for IL-4 detection at 37° C. and 5% CO2, the plates were treated as previously described (Rodrigues et al., J. Immunol., 158: 1268-1274, 1997), and the number of spots corresponding to IFN-γ and IL-4 secreting cells determined.

P. yoeli = conditions: α-GalCer alone, cited from earlier work
[5] = in vivo; cited from earlier work
P. berghei = conditions: mice; α-GalCer alone; cited from earlier work
P. yoelii sporozoites [6] = assay: Anti-sporozoite antibody titers by indirect immunofluorescence assay (IFA); format: in vivo, Plasmodium yoelii; conditions: γ-spz-immunized BALB/c mice
Procedure: Sera of immunized mice were obtained just before their challenge with sporozoites, and their Ab titers were measured using P. yoelii sporozoites in an indirect immunofluorescence assay (IFA). In brief, P. yoelii sporozoites were placed on multispot glass slides, and air-dried. After 1 hour of incubation with the sera, diluted in PBS containing 1% BSA, the slides were washed with PBS and incubated 1 hour with FITC- labelled affinity purified goat anti-mouse Ab (Kirkegaard & Perry Laboratories, Gaithersburg, Md.). The slides were then washed and mounted in PBS containing 50% (v/v) glycerol and 1% (w/v) Evans blue to reduce bleaching. The highest serum dilution resulting in fluorescence of the sporozoites was considered to be the IFA titer. Measurement of Ab Isotype Level by ELISA.
(§1) The present inventors also determined the titers of anti-sporozoite antibodies using an immunofluorescence assay(IFA) of air-dried P. yoelii sporozoites, as well as the titers of antibody against the circumsporozoite (CS) protein, the major surface antigen of sporozoites, using ELISA. The antibody titers were identical among the groups of γ-spz-immunized mice regardless of whether or not they received α-GalCer (FIG. 1A).

[7] = system: nucleoprotein (NP) of the influenza A virus; assay: CD8+ T cell anti-influenza response after recombinant Sindbis virus expressing NP epitope; format: in vivo; conditions: suboptimal dose (10^5 p.f.u.) recombinant Sindbis virus expressing epitope TYQRTRALV, with α-GalCer
From the text: In yet another specific embodiment, an antigen of the invention is influenza A virus-specific.

P. yoelii sporozoites [8] = assay: Parasite rRNA in the liver after live sporozoite challenge of immunized mice (real-time RT-PCR)
[9] = system: circumsporozoite (CS) protein; assay: Anti-CS antibody titers and isotypes by ELISA; format: in vivo, P. yoelii; conditions: γ-spz-immunized mice
Procedure: Sera of immunized mice were obtained prior to their challenge with sporozoites, and the levels of CS-specific IgM, IgG1, IgG2a, and IgE isotypes were measured using the Mouse Hybridoma Subtyping Kit (Boehringer Mannheim, Mannheim, Germany). Briefly, plates were coated with […] of B cell epitope (QGPGAP)2 (Charoenvit et al., J. Immunol., 146: 1020-1025, 1991) of the P. yoelii CS protein, blocked with PBS containing 1% BSA, and incubated for 1 hour with 1:5 dilution of sera from immunized and non-immunized mice. The plates were then washed and anti-mouse IgM, IgG1a, IgG2a (Boehringer Mannheim) and IgE (Southern Biotechnology Associates, Inc., Birmingham, Ala.) conjugated to peroxidase were added, followed by incubation with the substratre 2,2-Azino-di-[3-ethylbenzthiazoline sulfonate (6)], according the manufacture's instruction.
as §1

B 16-bearing mice = conditions: cited from earlier work
[10] = mouse, in vivo; cited from earlier work
[11] = BALB/c mice, i.v. 1 × 10^4 γ-spz or s.c. 1 × 10^7 p.f.u. AdPyCS, with or without α-GalCer, challenge with 50 viable P. yoelii sporozoites two weeks later
[12] = BALB/c mice, 2 μg α-GalCer, 1×10^4 γ-spz i.v.

Structure (SMILES): CCCCCCCCCCCCCCCCCCCCCCCCCC(=O)N[C@@H](COC1OC(COC2OC(CO)C(O)C(O)C2O)C(O)C(O)C1O)[C@H](O)[C@H](O)CCCCCCCCCCCCCC (stereo partly drawn) [Galα1-6Galα1-1′Cer, (2S,3S,4R)-2-amino-1—O-(α-D-galactopyranosyl-(1-6)-α-D-galactopyranosyl)-N-hexacosanoyl-1,3,4-octadecanetriol]
- proliferation of Vα14 NKT cells, compared with α-GalCer (Vα14 NKT cells): stimulate proliferation of Vα14 NKT cells in mice, although with lower efficiency

Structure (SMILES): CCCCCCCCCCCCCCCCCCCCCC[C@@H](O)C(=O)N[C@@H](COC1OC(CO)C(O)C(O)C1OC1OC(CO)C(O)C(O)C1O)[C@H](O)[C@H](O)CCCCCCCCCCCCCC (stereo partly drawn) [Galα1-2Galα1-1′Cer, (2S,3S,4R)-2-amino-1-O-(α-D-glucopyranosyl-(1-2)-α-D-galactopyranosyl)-N-[(R)-2-hydroxytetracosanoyl]-1,3,4-octadecanetriol]
- proliferation of Vα14 NKT cells, compared with α-GalCer (Vα14 NKT cells): stimulate proliferation of Vα14 NKT cells in mice, although with lower efficiency

Structure (SMILES): CCCCCCCCCCCCCCCCCCCCCCCCCC(=O)N[C@@H](CO[C@H]1O[C@H](CO)[C@@H](O)[C@H](O)[C@H]1O)[C@H](O)[C@H](O)CCCCCCCCCCCCCC [α-GlcCer, (2S,3S,4R)-1—O-(α-D-glucopyranosyl)-N-hexacosanoyl-2-amino-1,3,4-octadecanetriol]
- proliferation of Vα14 NKT cells, compared with α-GalCer (Vα14 NKT cells): stimulate proliferation of Vα14 NKT cells in mice, although with lower efficiency

Structure (SMILES): CCCCCCCCCCCCCCCCCCCCCCCCCC(=O)N[C@@H](CO[C@H]1O[C@H](CO)[C@H](O)[C@H](O)[C@H]1O)[C@H](O)[C@H](O)CCCCCCCCCCCCCC [α-GalCer, (2S,3S,4R)-1—O-(α-D-galactopyranosyl)-2-(N-hexacosanoylamino)-1,3,4-octadecanetriol]
- toxicity in monkeys [1]: does not induce toxicity
- toxicity in rodents [2]: does not induce toxicity
- α-GalCer-treated, sporozoite-immunized mice protected, experiment 1 (P. yoelii sporozoites [3]; 1×10^4 γ-spz, challenge with 50 viable sporozoites two weeks later): nine out of ten
- α-GalCer-treated, sporozoite-immunized mice protected, experiment 2 (P. yoelii sporozoites [3]; 1×10^5 γ-spz, challenge with 50 live sporozoites four weeks later): nine out of ten
- % protection (no parasitemia) (P. yoelii sporozoites [3]; [11]): 0%
- Number of mice protected/number challenged (P. yoelii sporozoites [3]; [11]): 0/30
- α-GalCer-treated, γ-spz-immunized mice protected (P. yoelii sporozoites [3]; BALB/c, 1×10^4 γ-spz i.v., challenge 50 viable sporozoites two weeks later): 28 out of 30
- protective effect of sub-optimal dose of AdPyCS with α-GalCer (P. yoelii sporozoites [3]; BALB/c, 1×10^7 p.f.u. AdPyCS s.c., challenge 50 viable sporozoites): strongly enhanced
- protection by α-GalCer alone (P. yoelii sporozoites [3]; BALB/c, no immunogen, challenge 50 viable sporozoites): failed to protect
- level of HIV-specific CD8+ T cell response vs immunized without α-GalCer [4]: ~3 times
- anti-malaria activity (inhibition of intra-hepatocytic stages), P. yoeli (P. yoeli; mice): strong anti-malaria activity
- parasite development in the liver of mice lacking either IFN-γ or the IFN-γ receptor (P. yoeli): unable to inhibit parasite development
- parasites in the liver, α-GalCer two days prior to challenge with live sporozoites (P. yoeli): completely eliminates the parasites from the liver
- protection against malaria in mice lacking either CD1d or Vα14 NKT cells (P. yoeli): failed to protect
- complications in human trials [5]: without a notable complication
- anti-malaria activity (inhibition of intra-hepatocytic stages), P. berghei (P. berghei): strong anti-malaria activity
- titers of anti-sporozoite antibodies (IFA), α-GalCer vs no α-GalCer (P. yoelii sporozoites [6]): identical
- CD8+ T cell anti-influenza response [7]: significantly enhances
- parasite load in the livers, times smaller than with γ-spz alone (P. yoelii sporozoites [8]; BALB/c mice, 2 μg α-GalCer with 1×10^4 γ-spz i.v., challenge 1×10^4 live sporozoites two weeks later): 10 times
- level of protective anti-malaria immunity, α-GalCer on the same day as γ-spz (P. yoelii sporozoites [8]; [12]): highest level of protective anti-malaria immunity
- level of protective immunity, α-GalCer two days after γ-spz immunization (P. yoelii sporozoites [8]; [12]): did not significantly enhance
- protective immunity, α-GalCer two days prior to γ-spz immunization (P. yoelii sporozoites [8]; [12]): completely abolished; also recorded: almost completely abolishes
- protection augmented relative to control, AdPyCS (P. yoelii sporozoites [8]; BALB/c mice, s.c. sub-optimal dose AdPyCS with α-GalCer same day): ~10 times
- protection enhanced, SIN(Mal) (P. yoelii sporozoites [8]; BALB/c mice, s.c. sub-optimal dose SIN(Mal) with α-GalCer same day): 3 times
- γ-spz-induced protective immunity in CD1d-deficient mice (P. yoelii sporozoites [8]; CD1d-deficient mice, BALB/c background, 1×10^4 γ-spz with α-GalCer): failed to enhance
- γ-spz-induced protective immunity in Jα281-deficient mice (P. yoelii sporozoites [8]; Jα281-deficient mice (lack Vα14 NKT cells), 1×10^4 γ-spz with α-GalCer): failed to enhance
- IgE, IgG1, IgG2a or IgM isotype profiles of anti-CS antibodies, α-GalCer-treated vs untreated [9]: no significant differences
- titers of antibody against the CS protein (ELISA), α-GalCer vs no α-GalCer [9]: identical
- mice bearing tumors cured (B 16-bearing mice; 100 μg/kg KRN7000): 60%
- antimetastatic activities vs OK432, Lentinan and Mitomycin C (B 16-bearing mice; B 16-bearing mice): stronger antimetastatic activities
- liver enzyme activities [10]: transient elevation of liver enzyme activities

Structure (SMILES): CCCCCCCCCCCCCCCCCCCCCC[C@@H](O)C(=O)N[C@@H](COC1OC(CO)C(O)C(OC2OC([C@H](O)CO)C(O)C2O)C1O)[C@H](O)[C@H](O)CCCCCCCCCCCCCC (stereo partly drawn) [Galβ1-3Galα1-1′Cer, (2S,3S,4R)-2-amino-1-O-(β-D-galactofuranosyl-(1-4)-α-D-galactopyranosyl)-N-[(R)-2-hydroxytetracosanoyl]-1,3,4-octadecanetriol]
- proliferation of Vα14 NKT cells, compared with α-GalCer (Vα14 NKT cells): stimulate proliferation of Vα14 NKT cells in mice, although with lower efficiency
